The test deals with T1, human CGRP receptor (Homo sapiens, UniProt O60894+Q16602).
T1 construct: SK-N-MC cells that endogenously express the human CGRP receptor; endogenous in cells; host or cells: SK-N-MC cells (membrane homogenates)
Description: Radioligand binding assay, [125I]-CGRP competition on SK-N-MC cell homogenates. The conditions noted are these: Binding data, [125I]-CGRP 40 pM, room temperature. As to the method: Tissue culture. SK-N-MC cells were grown at 37° C. in 5% CO2 as a monolayer in medium consisting of MEM with Earle's salts and L-glutamine (Gibco) supplemented with 10% fetal bovine serum (Gibco).
Radioligand binding assays. Cells were rinsed twice with phosphate-buffered saline (155 mM NaCl, 3.3 mM Na2HPO4, 1.1 mM KH2PO4, pH 7.4), and incubated for 5-10 min. at 4° C. in hypotonic lysis buffer consisting of 10 mM Tris (pH 7.4) and 5 mM EDTA. Cells were transferred from plates to polypropylene tubes (16×100 mm), homogenized and centrifuged at 32,000×g for 30 min. Pellets were resuspended in buffer consisting of 50 mM Tris (pH 7.4) and 1 mM EDTA, homogenized, and centrifuged again at 32,000×g for 30 min. Pellets were resuspended in 100 mM Tris-Cl pH 7.5, 10 mM MgCl2, 0.1% mammalian protease inhibitor cocktail (Sigma) and stored at −80° C. until needed. On the day of an experiment, homogenates were thawed and homogenized again. Binding of [^125I]-CGRP (NEN) was carried out in buffer containing 50 mM Tris-Cl pH 7.5, 5 mM MgCl2, 0.5% BSA. Homogenates (3.5 μg protein/well) were incubated with competitor compounds (solubilized in 100% DMSO at 100× their final assay concentrations) for one hour at room temperature. Then [^125I]-CGRP was added (40 pM final concentration) and the reaction incubated for one additional hour at room temperature. Assays were stopped by addition of cold wash buffer (20 mM Tris-Cl pH 7.5, 0.1% BSA) immediately followed by filtration over glass fiber filters (Whatman GF/B) previously soaked in 0.5% PEI. Non-specific binding was defined with 100 nM CGRP.
In turn, `CC(=O)c1ccc(NC(=O)N2CCC(=O)N3[C@@H]2CN(CCc2cccc(F)c2)C(=O)[C@@H]3Cc2ccc(F)c(F)c2)cc1` [Compound 62, (6S,9aS)-6-(3,4-Difluoro-benzyl)-8-[2-(3-fluoro-phenyl)-ethyl]-4,7-dioxo-hexahydro-pyrazino[1,2-a]pyrimidine-1-carboxylic acid (4-acetyl-phenyl)-amide] had an IC50 of 624 nM.

Compound `CC(=O)c1ccc(NC(=O)N2CCC(=O)N3[C@@H]2CN(CCc2ccccc2)C(=O)[C@@H]3Cc2ccc(F)c(F)c2)cc1` [Compound 63, (6S,9aS)-6-(3,4-Difluoro-benzyl)-4,7-dioxo-8-phenethyl-hexahydro-pyrazino[1,2-a]pyrimidine-1-carboxylic acid (4-acetyl-phenyl)-amide] registered an IC50 of 3040 nM.

`CC(=O)c1ccc(NC(=O)N2CCC(=O)N3[C@@H](c4ccccc4)C(=O)N(CCc4ccccc4)C[C@H]23)cc1` [Compound 64, (6S,9aS)-4,7-Dioxo-8-phenethyl-6-phenyl-hexahydro-pyrazino[1,2-a]pyrimidine-1-carboxylic acid (4-acetyl-phenyl)-amide] showed an IC50 of 473 nM.

`CC(=O)c1ccc(NC(=O)N2CCC(=O)N3[C@@H]2CN(CCc2ccccc2)C(=O)[C@@H]3CC2CCCCC2)cc1` [Compound 65, (6S,9aS)-6-Cyclohexylmethyl-4,7-dioxo-8-phenethyl-hexahydro-pyrazino[1,2-a]pyrimidine-1-carboxylic acid (4-acetyl-phenyl)-amide]: the IC50 is 517 nM.

For the compound `NC(=O)c1ccc(NC(=O)N2CCC(=O)N3[C@@H]2CN(CCc2ccccc2)C(=O)[C@@H]3CC2CCCCC2)cc1` [Compound 111, (6S,9aS)-6-Cyclohexylmethyl-4,7-dioxo-8-phenethyl-hexahydro-pyrazino[1,2-a]pyrimidine-1-carboxylic acid (4-carbamoyl-phenyl)-amide], the concentration for half-maximal inhibition (IC50) amounted to 12000 nM.

`CC(=O)c1ccc(NC(=O)N2CCC(=O)N3[C@@H](C4CCCCC4)C(=O)N(CCc4ccccc4Cl)C[C@H]23)cc1` [Compound 116, (6S,9aS)-8-[2-(2-Chloro-phenyl)-ethyl]-6-cyclohexyl-4,7-dioxo-hexahydro-pyrazino[1,2-a]pyrimidine-1-carboxylic acid (4-acetyl-phenyl)-amide] came in with an IC50 of 2580 nM.

Compound `CC(=O)c1ccc(NC(=O)N2CCC(=O)N3[C@@H](C4CCCCC4)C(=O)N(CCc4ccc(F)cc4)C[C@H]23)cc1` [Compound 122, (6S,9aS)-6-Cyclohexyl-8-[2-(4-fluoro-phenyl)-ethyl]-4,7-dioxo-hexahydro-pyrazino[1,2-a]pyrimidine-1-carboxylic acid (4-acetyl-phenyl)-amide] gave an IC50 of 890 nM.

Compound `CC(=O)c1ccc(NC(=O)N2CCC(=O)N3[C@@H](C4CCCCC4)C(=O)N(CCc4ccncc4)C[C@H]23)cc1` [Compound 132, (6S,9aS)-6-Cyclohexyl-4,7-dioxo-8-(2-pyridin-4-yl-ethyl)-hexahydro-pyrazino[1,2-a]pyrimidine-1-carboxylic acid (4-acetyl-phenyl)-amide] registered a half-inhibitory concentration (IC50) of 8000 nM.

`CC(=O)c1ccc(NC(=O)N2CCC(=O)N3[C@@H](C4CCCCC4)C(=O)N(CCc4cccc(Cl)c4)C[C@H]23)cc1` [Compound 135, (6S,9aS)-8-[2-(3-Chloro-phenyl)-ethyl]-6-cyclohexyl-4,7-dioxo-hexahydro-pyrazino[1,2-a]pyrimidine-1-carboxylic acid (4-acetyl-phenyl)-amide] registered an IC50 of 7070 nM.

As to `CC(=O)c1ccc(NC(=O)N2CCC(=O)N3[C@@H](C4CCCCC4)C(=O)N(CCc4cccs4)C[C@H]23)cc1` [Compound 138, (6S,9aS)-6-Cyclohexyl-4,7-dioxo-8-(2-thiophen-2-yl-ethyl)-hexahydro-pyrazino[1,2-a]pyrimidine-1-carboxylic acid (4-acetyl-phenyl)-amide], the IC50 came out at 87 nM.

In turn, `CC(=O)c1ccc(NC(=O)N2CCC(=O)N3[C@@H](C4CCCCC4)C(=O)N(CCc4cccnc4)C[C@H]23)cc1` [Compound 140, (6S,9aS)-6-Cyclohexyl-4,7-dioxo-8-(2-pyridin-3-yl-ethyl)-hexahydro-pyrazino[1,2-a]pyrimidine-1-carboxylic acid (4-acetyl-phenyl)-amide] showed a concentration for half-maximal inhibition (IC50) of 2440 nM.

On to `CC(=O)c1ccc(OC(=O)N2CCC(=O)N3[C@@H]2CN(CCc2ccccc2)C(=O)[C@@H]3CC2CCCCC2)c(C)c1` [Compound 144, (6S,9aS)-6-Cyclohexylmethyl-4,7-dioxo-8-phenethyl-hexahydro-pyrazino[1,2-a]pyrimidine-1-carboxylic acid 4-acetyl-2-methyl-phenyl ester], for which the half-inhibitory concentration (IC50) turned out to be 7400 nM.

Regarding `CC(O)c1ccc(NC(=O)N2CCC(=O)N3[C@@H]2CN(CCc2ccccc2)C(=O)[C@@H]3CC2CCCCC2)cc1` (stereo partly drawn) [Compound 145, (6S,9aS)-6-Cyclohexylmethyl-4,7-dioxo-8-phenethyl-hexahydro-pyrazino[1,2-a]pyrimidine-1-carboxylic acid [4-(1-hydroxy-ethyl)-phenyl]-amide], the concentration for half-maximal inhibition (IC50) turned out to be 2730 nM.

Compound `CC(=O)c1ccc(OC(=O)N2CCC(=O)N3[C@@H]2CN(CCc2ccccc2)C(=O)[C@@H]3CC2CCCCC2)cc1C` [Compound 146, (6S,9aS)-6-Cyclohexylmethyl-4,7-dioxo-8-phenethyl-hexahydro-pyrazino[1,2-a]pyrimidine-1-carboxylic acid 4-acetyl-3-methyl-phenyl ester] had a half-maximal inhibitory concentration (IC50) of 364 nM.

As for `CC(=O)c1ccc(OC(=O)N2CCC(=O)N3[C@@H](C4CCCCC4)C(=O)N(CCc4ccccc4)C[C@H]23)cc1C` [Compound 148, (6S,9aS)-6-Cyclohexyl-4,7-dioxo-8-phenethyl-hexahydro-pyrazino[1,2-a]pyrimidine-1-carboxylic acid 4-acetyl-3-methyl-phenyl ester], the half-maximal inhibitory concentration (IC50) is 3900 nM.

For `CC(=O)c1ccc(OC(=O)N2CCC(=O)N3[C@@H](C4CCCCC4)C(=O)N(CCc4ccccc4)C[C@H]23)cc1` [Compound 149, (6S,9aS)-6-Cyclohexyl-4,7-dioxo-8-phenethyl-hexahydro-pyrazino[1,2-a]pyrimidine-1-carboxylic acid 4-acetyl-phenyl ester], the 50% inhibitory concentration (IC50) turned out to be 8560 nM.

`O=C1COc2cc(OC(=O)N3CCC(=O)N4[C@@H](C5CCCCC5)C(=O)N(CCc5ccccc5)C[C@H]34)ccc21` [Compound 150, (6S,9aS)-6-Cyclohexyl-4,7-dioxo-8-phenethyl-hexahydro-pyrazino[1,2-a]pyrimidine-1-carboxylic acid 3-oxo-2,3-dihydro-benzofuran-6-yl ester] yielded an IC50 of 1730 nM.

In turn, `CC(=O)c1ccc(NC(=O)N2CCC(=O)N3[C@@H](c4ccc(F)c(F)c4)C(=O)N(CCc4cccc(F)c4)C[C@H]23)cc1` [Compound 151, 6-(3,4-Difluoro-phenyl)-8-[2-(3-fluoro-phenyl)-ethyl]-4,7-dioxo-hexahydro-pyrazino [1,2-a]pyrimidine-1-carboxylic acid (4-acetyl-phenyl)-amide] gave a half-maximal inhibitory concentration (IC50) of 39 nM.

Take `CC(=O)c1ccc(NC(=O)N2CCC(=O)N3[C@@H](c4cccc(F)c4)C(=O)N(CCc4cccc(F)c4)C[C@H]23)cc1` [Compound 152, (6S,9aS)-6-(3-Fluoro-phenyl)-8-[2-(3-fluoro-phenyl)-ethyl]-4,7-dioxo-hexahydro-pyrazino[1,2-a]pyrimidine-1-carboxylic acid (4-acetyl-phenyl)-amide]: the IC50 turned out to be 159 nM.

On to `CC(=O)c1ccc(NC(=O)N2CCC(=O)N3[C@@H](c4ccc(F)cc4F)C(=O)N(CCc4cccc(F)c4)C[C@H]23)cc1` [Compound 153, (6S,9aS)-6-(2,4-Difluoro-phenyl)-8-[2-(3-fluoro-phenyl)-ethyl]-4,7-dioxo-hexahydro-pyrazino[1,2-a]pyrimidine-1-carboxylic acid (4-acetyl-phenyl)-amide], for which the IC50 is 320 nM.

The compound `CC(=O)c1ccc(NC(=O)N2CCC(=O)N3[C@@H](c4cccc(F)c4F)C(=O)N(CCc4cccc(F)c4)C[C@H]23)cc1` [Compound 154, (6S,9aS)-6-(2,3-Difluoro-phenyl)-8-[2-(3-fluoro-phenyl)-ethyl]-4,7-dioxo-hexahydro-pyrazino[1,2-a]pyrimidine-1-carboxylic acid (4-acetyl-phenyl)-amide] gave an IC50 of 363 nM.

One may read the IC50 as the point on the concentration scale where inhibition reaches its midpoint. The low end stands for inhibition by little substance, the high end for a need for much substance.

The record behind these values is US20050209256A1, “Novel beta-turn mimetics as calcitonin gene related peptide receptor antagonists” (priority 2004, published 2005).
